{
  "source": "patent US11311608B2",
  "about": "“Methods for treating breast and other cancers by targeting argininosuccinate synthetase 1-deficiency” (CITY OF HOPE, priority 2013, dated 2022)",
  "origin": "cited, not measured here",
  "conditions": "versus arginase",
  "data": [
    {"substance": "Arginine deiminase", "values": [
      {"measurement": "effectiveness at depleting arginine from the environment relative to arginase", "result": 300, "unit": "fold"}
    ]}
  ]
}
